From the OligoGym collection
After the bases stand the sugars from the 5' end (letter, count) and the backbone: PS all phosphorothioate, else s phosphorothioate and o phosphodiester by linkage. Methylation of C is not given here. e = 2'-O-(2-methoxyethyl) (MOE); k = constrained ethyl (cEt); d = 2'-deoxy (DNA); m = 2'-O-methyl

Target: HSD17B13
Settings: ASO, HepaRG

| Sequence | target mRNA inhibition (1 µM) [%] | other results |
| --- | --- | --- |
| AAAGTTAATAGGACTA (sugars k3 d10 k3, PS) | 12 | – |
| GACTGCTGCTAGTGCC (sugars k3 d10 k3, PS) | 67 | – |
| ATGCAAAAGCATTCTA (sugars k3 d10 k3, PS) | 50 | – |
| TATAACTGAGCTAGAC (sugars k3 d10 k3, PS) | 53 | – |
| CTACACTAATATTGAG (sugars k3 d9 k3 e1, PS) | 10 | – |
| TGCAATAGTACTATAG (sugars k3 d10 k3, PS) | 24 | – |
| GGATTTCTAGGATGAT (sugars k3 d10 k3, PS) | 58 | – |
| TTGCACCGTTTTGGGC (sugars k3 d9 k3 e1, PS) | 50 | – |
| CTAGATTCTACACTAA (sugars k3 d10 k3, PS) | 17 | – |
| ATAGCAAGCCAACAGA (sugars k3 d9 k3 e1, PS) | 30 | – |
| GCACTCAGCTGCAGTT (sugars k3 d10 k3, PS) | 29 | – |
| GACAACAGAGTTCTGT (sugars k3 d10 k3, PS) | 9 | – |
| TCTCTTGACAATGGTT (sugars k3 d9 k3 e1, PS) | 84 | target mRNA inhibition (0.02 µM): 0%; target mRNA inhibition (0.078 µM): 23%; target mRNA inhibition (0.313 µM): 47%; target mRNA inhibition (1.25 µM): 66%; target mRNA inhibition (5 µM): 79% |
| GAGTCGGATTATTTTT (sugars k3 d10 k3, PS) | 44 | – |
| GCTGTAAGAGTCAGTA (sugars kkdddddddddkekek, PS) | 42 | – |
| ACTTGAACAGTCTTAA (sugars k3 d10 k3, PS) | 63 | – |
| GACAAGAGTTCTTGCA (sugars k3 d10 k3, PS) | 22 | – |
| GACCAGGGAATTTATC (sugars k3 d10 k3, PS) | 41 | – |
| TGATACACCAATGCAG (sugars kkdddddddddkekek, PS) | 62 | – |

| Sequence | target mRNA inhibition (1 µM) [%] | other results |
| --- | --- | --- |
| TCAAAGTTTTGGGACC (sugars k3 d10 k3, PS) | 42 | – |
| CCGTUTTGGGCTAATG (sugars k3 d1 m1 d8 k3, PS) | 51 | – |
| GCACCGTTTTGGGCTA (sugars k3 d10 k3, PS) | 74 | target mRNA inhibition (0.02 µM): 36%; target mRNA inhibition (0.078 µM): 38%; target mRNA inhibition (0.313 µM): 61%; target mRNA inhibition (1.25 µM): 80%; target mRNA inhibition (5 µM): 88% |
| GAGGTAGCTTTTGTCC (sugars k3 d10 k3, PS) | 59 | – |
| AATAATGGGCAGAGCT (sugars k3 d10 k3, PS) | 43 | – |
| GCAGTTATTAGAAGTC (sugars k3 d10 k3, PS) | 76 | target mRNA inhibition (0.02 µM): 9%; target mRNA inhibition (0.078 µM): 22%; target mRNA inhibition (0.313 µM): 41%; target mRNA inhibition (1.25 µM): 74%; target mRNA inhibition (5 µM): 84% |
| AGACAATACAGGATAG (sugars k3 d10 k3, PS) | 15 | – |
| TTCGAAACTATTCATA (sugars k3 d10 k3, PS) | 44 | – |
| GGACCAATATAATCCA (sugars k3 d10 k3, PS) | 20 | – |
| ATGGCTACAGATTGGA (sugars kkdddddddddkekek, PS) | 57 | – |
| CCTCGATCCTATATAC (sugars k3 d1 m1 d8 k3, PS) | 9 | – |
| GCAAGCCAACAGAGAG (sugars k3 d9 k3 e1, PS) | 38 | – |
| CATCTATCAGACTTCT (sugars k3 d10 k3, PS) | 38 | – |
| TAGTCTTCAGCAAAGT (sugars k3 d10 k3, PS) | 49 | – |
| GATGTTCATGGCTTTG (sugars k3 d10 k3, PS) | 81 | target mRNA inhibition (0.02 µM): 0%; target mRNA inhibition (0.078 µM): 5%; target mRNA inhibition (0.313 µM): 75%; target mRNA inhibition (1.25 µM): 68% |
| TGCTGCATTAATGCCA (sugars k3 d9 k3 e1, PS) | 6 | – |
| TGTAAGAGTCAGTATC (sugars k3 d9 k3 e1, PS) | 46 | – |
| TAAGTTATTATCCCCA (sugars k3 d10 k3, PS) | 70 | – |
| GGGCTAGAACTTAAAA (sugars k3 d10 k3, PS) | 35 | – |
